# Assay results: ChEMBL document CHEMBL1145704, “Absolute Configuration of 2,6-Dimethylheptyl Sulfate and Its Distribution in Ascidiacea” (J Nat Prod, 1997)
# Columns and labels:
# Gambusia affinis = assay: Toxicity in Gambusia affinis upto 100 ug/mL by lethality assay; type: organism-based; details: in vivo
# [1] = Toxicity against Artemia salina L EACH; type: organism-based; details: in vivo
compound,measurement,setting,value
CC(C)CCC[C@@H](C)COS(=O)(=O)[O-].[Na+],Activity,Gambusia affinis,Non-toxic
same,LC50,[1],17.8 µg/mL
